Reference: patent US8546579B2, “Bicycloheteroaryl compounds as P2X7 modulators and uses thereof” (Evotec (US) Inc., priority 2006, dated 2013)
pIC50: −log10 of the molar value.

Target: T1, P2X7 receptor (Homo sapiens, UniProt Q99572)
T1 construct: host or cells: THP-1 cells differentiated with LPS and IFN-γ
T1 sequence (Q99572 1-595): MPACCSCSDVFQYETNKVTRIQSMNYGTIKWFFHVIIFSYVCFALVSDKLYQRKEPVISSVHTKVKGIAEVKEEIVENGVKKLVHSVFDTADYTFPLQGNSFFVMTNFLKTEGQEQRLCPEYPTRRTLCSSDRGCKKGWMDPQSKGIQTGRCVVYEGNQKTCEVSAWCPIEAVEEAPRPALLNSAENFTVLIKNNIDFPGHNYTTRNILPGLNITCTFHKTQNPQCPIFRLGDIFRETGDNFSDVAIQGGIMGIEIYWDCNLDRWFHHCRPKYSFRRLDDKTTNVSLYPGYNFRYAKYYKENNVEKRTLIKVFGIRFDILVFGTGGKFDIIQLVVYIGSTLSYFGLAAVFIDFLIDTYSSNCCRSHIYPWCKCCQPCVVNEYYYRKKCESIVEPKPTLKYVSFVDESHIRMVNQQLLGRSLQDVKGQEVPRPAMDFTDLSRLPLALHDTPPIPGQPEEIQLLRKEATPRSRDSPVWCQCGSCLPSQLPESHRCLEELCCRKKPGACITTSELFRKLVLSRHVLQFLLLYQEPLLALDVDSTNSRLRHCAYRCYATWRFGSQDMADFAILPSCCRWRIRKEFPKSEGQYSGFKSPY
Test: IL-1β release assay in differentiated THP-1 cells stimulated with BzATP (Example 9)
Type: cell-based
Design: inhibition: dose or concentration left out as unconfirmed
Details: for inhibition: THP-1, read-out: IL-1β % Inhib.; for inhibition at 0.1 µM: 0.1 μM compound, "*" class symbols, read-out: IL-1β % Inhib. ("*" symbols: at 0.1 μM); for inhibition at 0.1 µM / inhibition at 0.3 µM: differentiated THP-1 cells, BzATP 250 uM; for inhibition at 0.3 µM: 0.3 μM compound, "+" class symbols, read-out: IL-1β % Inhib. @ 0.3 μM; for pIC50: THP-1 cells, BzATP-stimulated IL-1β release, four parameter logistic fit
How it was run: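 IC50 derived by four-parameter logistic fit of percent inhibition of IL-1β release, measured by ELISA after 45 min stimulation with 250 uM BzATP. Cells: THP-1 differentiated 16 h with 100 ng/mL LPS plus IFN-γ, LPS-primed 2 h, compound added 30 min beforehand.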

Row | SMILES | inhibition [%] | inhibition at 0.1 µM [%] | inhibition at 0.3 µM [%] | pIC50
1 | O=C(Nc1cccc2c(=O)n(Cc3ccc(OC(F)(F)F)cc3)ccc12)[C@@]12C[C@@H]3C[C@@H](C[C@@H]1C3)C2 [Compound 1594] | 0 to 25 | – | – | –
2 | O=C(Nc1cccc2c(=O)n(Cc3ccc(OC(F)(F)F)cc3)ccc12)c1cccc2c1OCCO2 [Compound 1595] | 0 to 25 | – | – | –
3 | O=C(Nc1cccc2c(=O)n(Cc3ccc(OC(F)(F)F)cc3)ccc12)c1ccc2c(c1)OCCCO2 [Compound 1596] | 0 to 25 | – | – | –
4 | O=C(Cc1csc2ccccc12)Nc1cccc2c(=O)n(Cc3ccc(OC(F)(F)F)cc3)ccc12 [Compound 1597] | 0 to 25 | – | – | –
5 | Cc1c(Cl)cccc1C(=O)Nc1cccc2c(=O)n(Cc3ccc(OC(F)(F)F)cc3)ccc12 [Compound 1598] | – | 26 to 50 | – | –
6 | Cc1cc(C)cc(CC(=O)Nc2cccc3c(=O)n(Cc4ccc(OC(F)(F)F)cc4)ccc23)c1 [Compound 1599] | – | 0 to 25 | – | –
7 | O=C(Nc1cccc2c(=O)n(Cc3ccc(OC(F)(F)F)cc3)ccc12)C1C[C@@H]2CC[C@H]1C2 (stereo partly drawn) [Compound 1600] | – | 0 to 25 | – | –
8 | COc1ccc(CC(=O)Nc2cccc3c(=O)n(Cc4ccc(OC(F)(F)F)cc4)ccc23)c(OC)c1 [Compound 1601] | – | 0 to 25 | – | –
9 | Cc1cc(C(=O)Nc2cccc3c(=O)n(Cc4ccc(OC(F)(F)F)cc4)ccc23)ccc1F [Compound 1602] | – | 0 to 25 | – | –
10 | O=C(CCc1ccc(Cl)cc1)Nc1cccc2c(=O)n(Cc3ccc(OC(F)(F)F)cc3)ccc12 [Compound 1603] | – | 0 to 25 | – | –
11 | CCOc1ccccc1CC(=O)Nc1cccc2c(=O)n(Cc3ccc(OC(F)(F)F)cc3)ccc12 [Compound 1604] | – | 0 to 25 | – | –
12 | COc1ccc(CC(=O)Nc2cccc3c(=O)n(Cc4ccc(OC(F)(F)F)cc4)ccc23)cc1C [Compound 1605] | – | 0 to 25 | – | –
13 | Cc1cccc(CCC(=O)Nc2cccc3c(=O)n(Cc4ccc(OC(F)(F)F)cc4)ccc23)c1 [Compound 1606] | – | 0 to 25 | – | –
14 | Cc1cccc(C(=O)Nc2cccc3c(=O)n(Cc4ccc(OC(F)(F)F)cc4)ccc23)c1Cl [Compound 1607] | – | 0 to 25 | – | –
15 | COc1ccc(C(=O)Nc2cccc3c(=O)n(Cc4ccc(OC(F)(F)F)cc4)ccc23)cc1C [Compound 1608] | – | 0 to 25 | – | –
16 | Cc1ccc(CCC(=O)Nc2cccc3c(=O)n(Cc4ccc(OC(F)(F)F)cc4)ccc23)c(C)c1 [Compound 1609] | – | 0 to 25 | – | –
17 | O=C(CCc1cccc(Cl)c1)Nc1cccc2c(=O)n(Cc3ccc(OC(F)(F)F)cc3)ccc12 [Compound 1610] | – | 0 to 25 | – | –
18 | CN(C)CCn1ccc2c(NC(=O)Cc3ccc(Cl)cc3C(F)(F)F)cccc2c1=O [Compound 1611] | – | – | 0 to 25 | 6.03
19 | CC(C)C(C(=O)Nc1cccc2c(=O)n(CCN(C)C)ccc12)c1ccc(Cl)cc1 (stereo not drawn) [Compound 1612] | – | – | 0 to 25 | < 6.00
20 | CN(C)CCn1ccc2c(NC(=O)Cc3ccccc3Br)cccc2c1=O [Compound 1613] | – | – | 0 to 25 | < 6.00
21 | CN(C)CCn1ccc2c(NC(=O)C3(c4ccc(Cl)cc4)CCCC3)cccc2c1=O [Compound 1614] | – | – | 0 to 25 | < 6.00
22 | CO[C@@](C(=O)Nc1cccc2c(=O)n(CCN(C)C)ccc12)(c1ccccc1)C(F)(F)F [Compound 1615] | – | – | 0 to 25 | < 6.00

Row | SMILES | inhibition [%] | inhibition at 0.1 µM [%] | inhibition at 0.3 µM [%] | pIC50
23 | CO[C@](C(=O)Nc1cccc2c(=O)n(CCN(C)C)ccc12)(c1ccccc1)C(F)(F)F [Compound 1616] | – | – | 0 to 25 | < 6.00
24 | CC(=O)OCCn1ccc2c(NC(=O)Cc3ccc(C(F)(F)F)cc3C(F)(F)F)cccc2c1=O [Compound 1617] | – | – | 26 to 50 | 6.38
25 | CN(C)CCn1ccc2c(NC(=O)Cc3ccc(C(F)(F)F)cc3C(F)(F)F)cccc2c1=O [Compound 1618] | – | – | 0 to 25 | < 6.00
26 | CC(C)(C)OC(=O)N1CCC[C@H]1Cn1ccc2c(NC(=O)CC3CCCCCC3)cccc2c1=O [Compound 1619] | – | – | ≥ 76 | 7.17
27 | CC(C)(C)OC(=O)N1CCC[C@@H]1Cn1ccc2c(NC(=O)Cc3ccc(Cl)c(C(F)(F)F)c3)cccc2c1=O [Compound 1620] | – | – | ≥ 76 | 7.39
28 | CC(C)(C)OC(=O)N1CCC[C@H]1Cn1ccc2c(NC(=O)Cc3ccc(Cl)c(C(F)(F)F)c3)cccc2c1=O [Compound 1621] | – | – | ≥ 76 | 8.16
29 | CC(C(N)=O)n1ccc2c(NC(=O)C3COc4cc(C(C)(C)C)ccc4O3)cccc2c1=O (stereo not drawn) [Compound 1622] | – | – | 0 to 25 | < 6.00
30 | COCCn1ccc2c(NC(=O)Cc3ccc(Cl)c(C(F)(F)F)c3)cccc2c1=O [Compound 1623, 2-(4-Chloro-3-trifluoromethyl-phenyl)-N-[2-(2-methoxy-ethyl)-1-oxo-1,2-dihydro-isoquinolin-5-yl]-acetamide] | – | – | ≥ 76 | 8.03
31 | O=C(Cc1ccc(Cl)c(C(F)(F)F)c1)Nc1cccc2c(=O)n(Cc3ccc(C(F)(F)F)nc3)ccc12 [Compound 1624, 2-(4-Chloro-3-trifluoromethyl-phenyl)-N-[1-oxo-2-(6-trifluoromethyl-pyridin-3-ylmethyl)-1,2-dihydro-isoquinolin-5-yl]-acetamide] | – | – | 26 to 50 | 6.44
32 | CS(=O)(=O)CCn1ccc2c(NC(=O)CC3(O)CCCCCC3)cccc2c1=O [Compound 1625] | – | – | 0 to 25 | < 6.00
33 | O=C(Cc1cccc(C(F)(F)F)c1F)Nc1cccc2c(=O)n(Cc3ccc(C(F)(F)F)nc3)ccc12 [Compound 1626] | – | – | 0 to 25 | < 6.00
34 | O=C(Cc1cccc(C(F)(F)F)c1F)Nc1cccc2c(=O)n(Cc3ccccn3)ccc12 [Compound 1627] | – | – | 26 to 50 | 6.38
35 | O=C(Cc1ccc(Cl)c(C(F)(F)F)c1)Nc1cccc2c(=O)n(Cc3ccccn3)ccc12 [Compound 1628, 2-(4-Chloro-3-trifluoromethyl-phenyl)-N-(1-oxo-2-pyridin-2-ylmethyl-1,2-dihydro-isoquinolin-5-yl)-acetamide] | – | – | ≥ 76 | 7.25
36 | CC1(C)CCCC(O)(CC(=O)Nc2cccc3c(=O)n(CCS(C)(=O)=O)ccc23)C1 (stereo not drawn) [Compound 1629] | – | – | 26 to 50 | 6.34
37 | CS(=O)(=O)CCn1ccc2c(NC(=O)Cc3ccc(Cl)c(C(F)(F)F)c3)cccc2c1=O [Compound 1630, 2-(4-Chloro-3-trifluoromethyl-phenyl)-N-[2-(2-methanesulfonyl-ethyl)-1-oxo-1,2-dihydro-isoquinolin-5-yl]acetamide] | – | – | ≥ 76 | 6.96
38 | CC(C(=O)Nc1cccc2c(=O)n(CCS(C)(=O)=O)ccc12)c1ccc(Cl)cc1 (stereo not drawn) [Compound 1631] | – | – | 0 to 25 | < 6.00
39 | CS(=O)(=O)CCn1ccc2c(NC(=O)Cc3ccc(Cl)c(Cl)c3)cccc2c1=O [Compound 1632] | – | – | 26 to 50 | 6.50
40 | CC(c1ccccn1)n1ccc2c(NC(=O)Cc3cccc(C(F)(F)F)c3F)cccc2c1=O (stereo not drawn) [Compound 1633, 2-(2-Fluoro-3-trifluoromethyl-phenyl)-N-[1-oxo-2-(1-pyridin-2-yl-ethyl)-1,2-dihydro-isoquinolin-5-yl]-acetamide] | – | – | ≥ 76 | 7.59
41 | CC(c1ccccn1)n1ccc2c(NC(=O)Cc3ccc(C(F)(F)F)cc3)cccc2c1=O (stereo not drawn) [Compound 1634] | – | – | 51 to 75 | 6.58
42 | CC(c1ccccn1)n1ccc2c(NC(=O)Cc3ccc(C(F)(F)F)c(F)c3)cccc2c1=O (stereo not drawn) [Compound 1635] | – | – | ≥ 76 | 6.95
43 | CC(c1ccccn1)n1ccc2c(NC(=O)[C@H](C)c3ccc(Cl)c(Cl)c3)cccc2c1=O (stereo partly drawn) [Compound 1636] | – | 26 to 50 | – | –
44 | CC(c1ccccn1)n1ccc2c(NC(=O)Cc3ccc(Cl)c(F)c3)cccc2c1=O (stereo not drawn) [Compound 1637] | – | 26 to 50 | – | –
